System: C57BL/KsJdb/db mice
Assay: Hypoglycemic effect of single or combined administration in db/db mice (plasma glucose on day 14)
Type: in vivo, mouse
Conditions: for Decreasing rate: plasma glucose decrease vs control group mean
Protocol: As test animals, C57BL/KsJdb/db mice were used, which were created in Jackson Laboratory (USA) and known as an obesity, hyperlipemia, hyperinsulinemia, and insulin-resistant model (Journal of Clinical Investigation, 85, pp 962-967, 1990). Blood was collected from the orbital venous plexus of each 7-week-old db/db mouse using a heparin-treated capillary tube, and centrifugation was performed to collect plasma. Thereafter, the plasma glucose concentration (Glucose CII-Test Wako (Wako Pure Chemical Industries, Ltd.)), the insulin concentration (Lebis Insulin Kit: for mouse-T (SHIBAYAGI)), and the triglyceride concentration (Triglyceride E-Test Wako (Wako Pure Chemical Industries, Ltd.)) were measured for classification. The classification was performed so that distribution of each measurement item is uniform for each group by block allocation based on many variables in which the plasma glucose concentration is most emphasized using the measured values of the plasma glucose concentration, the body weight, the insulin concentration, and the triglyceride concentration. […] Two hours after the administration of the medicines on the 14th day from the beginning day of the administration, blood was collected from the orbital venous plexus, and the plasma thereof was collected to measure the plasma glucose concentration. […] Each plasma glucose concentration is expressed as mean±standard deviation for 6 mice of each group. Each decreasing rate is calculated from ((mean of plasma glucose concentration of control group)−(mean of plasma glucose concentration of each group))/(mean of plasma glucose concentration of control group)×100, while each relative index is calculated from (mean of plasma glucose concentration of each group)/(mean of plasma glucose concentration of control group).

Row | SMILES | Relative index (3 mg/kg oral once a day for 14 days, mean plasma glucose of group / control group) | Plasma glucose concentration (3 mg/kg oral once a day for 14 days, plasma 2 h after dosing on day 14, mean ± SD, 6 mice) [mg/dL] | Decreasing rate (3 mg/kg oral once a day for 14 days) [%] | Decreasing effect for the plasma glucose concentration (in words) (single administration 3 mg/kg, 14 days, compared with normal db/+m mouse level (187±16)) | Decreasing rate (300 mg/kg oral once a day for 14 days) [%]
1 | O=C([O-])C(Cl)(Cl)CCCCCCCCCCc1ccc(Cl)cc1.[Na+] [sodium 2,2-dichloro-12-(4-chlorophenyl)-dodecanoate] | 0.89 | 241 ± 116 | 11 | insufficient | –
2 | CN(C)C(=N)NC(=N)N.Cl [Metformin, 1,1-Dimethylbiguanide hydrochloride, reference compound] | – | – | – | – | 3

From US20050272814A1, “Medicine for prevention or treatment of diabetes” (priority 2004, published 2005)
